Assay: Thermal conversion of 2′,3′-substituted ATP to unsubstituted ATP in ligase buffer at 95° C. (HPLC)
Assay type: physicochemical
Conditions: for Concentration of unsubstituted ATP: 1 mM 2′,3′-substituted ATP
Description: The reactions were monitored by analysis of the aliquot of incubated mixture by reverse-phase and anion-exchange HPLC.

SMILES: CC(C)(C)OCCO[C@@H]1[C@H](OCCOC(C)(C)C)[C@@H](COP(=O)(O)OP(=O)(O)OP(=O)(O)O)O[C@H]1n1cnc2c(N)ncnc21 [2′,3′-TBE-substituted ATP, 2′,3′-O-bis-[2-(tert-butoxy)]ethyl-adenosine-5′-triphosphate]
- Concentration of unsubstituted ATP (ligase buffer pH 7.5, 5 min): 569 µM
- Concentration of unsubstituted ATP (ligase buffer pH 7.5, 10 min): 857 µM
- Concentration of unsubstituted ATP (ligase buffer pH 7.5, 20 min): 970 µM
- cofactor molecules converted to the unmodified ATP (2 min, ligation buffer): about 20%
- conversion to unmodified ATP (20 min, ligation buffer): more than 85%
